Assay results: article PMC11822212, “High-throughput screening identifies Aurora kinase B as a critical therapeutic target for Merkel cell carcinoma” (Nature Communications, 2025)

What was measured:
MCC13 cells (VN-MCC) = test: qHTS cell viability (CellTiter-Glo, 72 h; primary and follow-up small molecule screen); format: cell-based, human
HACAT cells = test: qHTS cell viability (CellTiter-Glo, 72 h; primary screen), control cell line; format: cell-based, human
[1] = system: six MCC cell lines and four control cell lines; test: qHTS cell viability, all 10 cell lines screened; format: cell-based
UISO cells (VN-MCC) = test: qHTS cell viability (CellTiter-Glo, 72 h; primary and follow-up small molecule screen); format: cell-based, human
CRL-7250 cells = test: qHTS cell viability (CellTiter-Glo, 72 h; primary screen), control cell line; format: cell-based
[2] = system: VN-MCC cell lines (MCC13, MCC26, UISO); test: qHTS cell viability, VN-MCC cell lines as a group (mean AUC, VN.MCC.avg); format: cell-based, human; settings: for VN-MCC_Avg_AUC: mean AUC of VN-MCC cell lines
MKL-2 cells (VP-MCC) = test: qHTS cell viability (CellTiter-Glo, 72 h; primary and follow-up small molecule screen); format: cell-based, human
[3] = system: MCC cell lines (WAGA, MKL-1, MKL-2, MCC13, MCC26, UISO); test: qHTS cell viability, all six MCC cell lines as a group (mean AUC, MCC.avg); format: cell-based, human
NIH-3T3 cells = test: qHTS cell viability (CellTiter-Glo, 72 h; primary screen), control cell line; format: cell-based, mouse
MCC26 cells (VN-MCC) = test: qHTS cell viability (CellTiter-Glo, 72 h; primary and follow-up small molecule screen); format: cell-based, human
[4] = system: VP-MCC cell lines (WAGA, MKL-1, MKL-2); test: qHTS cell viability, VP-MCC cell lines as a group (mean AUC, VP.MCC.avg); format: cell-based, human; settings: for VP-MCC_Avg_AUC: mean AUC of VP-MCC cell lines
HEK293T cells = test: qHTS cell viability (CellTiter-Glo, 72 h; primary screen), control cell line; format: cell-based, human
MKL-1 cells (VP-MCC) = test: qHTS cell viability (CellTiter-Glo, 72 h; primary and follow-up small molecule screen); format: cell-based, human
WAGA cells (VP-MCC) = test: as above; format: cell-based, human
[5] = system: control cell lines (HACAT, HEK293T, CRL-7250, NIH-3T3); test: qHTS cell viability, control cell lines as a group (mean AUC, Control.avg); format: cell-based; settings: mean AUC of control cell lines
[6] = MIPE library, 11-point DRC, sheet S2E
[7] = MIPE library, 11-point DRC, control cell line, sheet S2E
[8] = NPC library, qHTS dose-response AUC, MCC13
[9] = NPC library, qHTS dose-response AUC, HACAT control
[10] = NPC library, qHTS dose-response AUC, UISO
[11] = NPC library, qHTS dose-response AUC, CRL7250 control
[12] = NPC library, qHTS dose-response AUC, MKL2
[13] = NPC library, mean AUC of six MCC cell lines
[14] = NPC library, qHTS dose-response AUC, NIH3T3 control
[15] = NPC library, qHTS dose-response AUC, MKL1
[16] = NPC library, qHTS dose-response AUC, WAGA
[17] = NPC library, 8-point DRC, area under dose-response curve
[18] = NPC library, 8-point DRC, control cell line

SMILES: O=C(CCCCCCC(=O)Nc1ccccc1)NO [Suberoylanilide hydroxamic acid]
- MCC13_AUC (MCC13 cells (VN-MCC); [6]): 429.995
- HACAT_AUC (HACAT cells; [7]): 451.394
- Control-MCC ([1]; MIPE library, Control AUC minus MCC AUC (therapeutic window), sheet S2E): 28.5854
- UISO_AUC (UISO cells (VN-MCC); [6]): 422.155
- CRL7250_AUC (CRL-7250 cells; [7]): 429.882
- Control-VN-MCC ([2]; MIPE library, Control AUC minus VN-MCC AUC (therapeutic window), sheet S2E): -12.0249
- VN-MCC_Avg_AUC ([2]; MIPE library, sheet S2E): 436.558
- MKL2_AUC (MKL-2 cells (VP-MCC); [6]): 344.522
- MCC_Avg_AUC ([3]; MIPE library, mean AUC of six MCC cell lines, sheet S2E): 395.947
- NIH3T3_AUC (NIH-3T3 cells; [7]): 416.277
- MCC26_AUC (MCC26 cells (VN-MCC); [6]): 457.523
- Control-VP-MCC ([4]; MIPE library, Control AUC minus VP-MCC AUC (therapeutic window), sheet S2E): 69.1958
- VP-MCC_Avg_AUC ([4]; MIPE library, sheet S2E): 355.337
- HEK293T_AUC (HEK293T cells; [7]): 400.579
- MKL1_AUC (MKL-1 cells (VP-MCC); [6]): 374.242
- WAGA_AUC (WAGA cells (VP-MCC); [6]): 347.247
- Control_Avg_AUC ([5]; MIPE library, sheet S2E): 424.533

SMILES: [H]/N=C(/NCCCCC)N/N=C/c1c[nH]c2ccc(OC)cc12 [Tegaserod]
- MCC13_AUC (MCC13 cells (VN-MCC); [8]): 473.827
- HACAT_AUC (HACAT cells; [9]): 397.896
- Control-MCC ([1]; NPC library, therapeutic window: Control avg AUC minus MCC avg AUC): 71.3268
- UISO_AUC (UISO cells (VN-MCC); [10]): 401.587
- CRL7250_AUC (CRL-7250 cells; [11]): 432.653
- VN-MCC_Avg_AUC ([2]; NPC library): 434.493
- Control-VN-MCC ([2]; NPC library, therapeutic window: Control avg AUC minus VN-MCC avg AUC): -14.2555
- MKL2_AUC (MKL-2 cells (VP-MCC); [12]): 260.213
- MCC_Avg_AUC [3, 13]: 348.911
- NIH3T3_AUC (NIH-3T3 cells; [14]): 444.55
- MCC26_AUC (MCC26 cells (VN-MCC); NPC library; qHTS dose-response AUC, MCC26): 428.067
- VP-MCC_Avg_AUC ([4]; NPC library): 263.329
- Control-VP-MCC ([4]; NPC library, therapeutic window: Control avg AUC minus VP-MCC avg AUC): 156.909
- HEK293T_AUC (HEK293T cells; NPC library; qHTS dose-response AUC, HEK293T control): 405.853
- MKL1_AUC (MKL-1 cells (VP-MCC); [15]): 250.061
- WAGA_AUC (WAGA cells (VP-MCC); [16]): 279.713
- Control_Avg_AUC ([5]; NPC library): 420.238

SMILES: CSc1ccc2c(c1)N(CCC1CCCCN1C)c1ccccc1S2 (stereo not shown) [Thioridazine]
- MCC13_AUC (MCC13 cells (VN-MCC); [17]): 405.187
- MCC13_AUC (MCC13 cells (VN-MCC); [8]): 405.187
- MCC13_AUC (MCC13 cells (VN-MCC); area under the dose-response curve, MCC13 cells, AUC<450 = reduced viability): 405.187
- HACAT_AUC (HACAT cells; [18]): 453.674
- HACAT_AUC (HACAT cells; [9]): 453.674
- HACAT_AUC (HACAT cells; area under the dose-response curve, HACAT control cells, AUC<450 = reduced viability): 453.674
- Control-MCC ([1]; NPC library, Control AUC minus MCC AUC (therapeutic window)): 60.2868
- UISO_AUC (UISO cells (VN-MCC); [17]): 400.342
- UISO_AUC (UISO cells (VN-MCC); [10]): 400.342
- UISO_AUC (UISO cells (VN-MCC); area under the dose-response curve, UISO cells, AUC<450 = reduced viability): 400.342
- CRL7250_AUC (CRL-7250 cells; [18]): 474.374
- CRL7250_AUC (CRL-7250 cells; [11]): 474.374
- CRL7250_AUC (CRL-7250 cells; area under the dose-response curve, CRL7250 control cells, AUC<450 = reduced viability): 474.374
- Control-VN-MCC ([2]; Control AUC minus VN-MCC AUC): 56.3901
- Control-VN-MCC ([2]; NPC library, Control AUC minus VN-MCC AUC (therapeutic window)): 56.3901
- VN-MCC_Avg_AUC ([2]; NPC library): 403.119
- MKL2_AUC (MKL-2 cells (VP-MCC); [17]): 356.973
- MKL2_AUC (MKL-2 cells (VP-MCC); [12]): 356.974
- MKL2_AUC (MKL-2 cells (VP-MCC); area under the dose-response curve, MKL-2 cells, AUC<450 = reduced viability): 356.974
- MCC_Avg_AUC ([3]; NPC library, mean AUC of all 6 MCC cell lines): 399.222
- MCC_Avg_AUC [3, 13]: 399.222
- NIH3T3_AUC (NIH-3T3 cells; [18]): 457.937
- NIH3T3_AUC (NIH-3T3 cells; [14]): 457.938
- NIH3T3_AUC (NIH-3T3 cells; area under the dose-response curve, NIH3T3 control cells, AUC<450 = reduced viability): 457.938
- MCC26_AUC (MCC26 cells (VN-MCC); [17]): 403.828
- MCC26_AUC (MCC26 cells (VN-MCC); NPC library, qHTS dose-response AUC, MCC26): 403.828
- MCC26_AUC (MCC26 cells (VN-MCC); area under the dose-response curve, MCC26 cells; AUC<450 = reduced viability): 403.828
- Control-VP-MCC ([4]; Control AUC minus VP-MCC AUC): 64.1836
- Control-VP-MCC ([4]; NPC library, Control AUC minus VP-MCC AUC (therapeutic window)): 64.1836
- HEK293T_AUC (HEK293T cells; [18]): 452.051
- HEK293T_AUC (HEK293T cells; NPC library, qHTS dose-response AUC, HEK293T control): 452.051
- HEK293T_AUC (HEK293T cells; area under the dose-response curve, HEK293T control cells; AUC<450 = reduced viability): 452.051
- MKL1_AUC (MKL-1 cells (VP-MCC); [17]): 412.834
- MKL1_AUC (MKL-1 cells (VP-MCC); [15]): 412.834
- MKL1_AUC (MKL-1 cells (VP-MCC); area under the dose-response curve, MKL-1 cells, AUC<450 = reduced viability): 412.834
- WAGA_AUC (WAGA cells (VP-MCC); [17]): 416.169
- WAGA_AUC (WAGA cells (VP-MCC); [16]): 416.169
- WAGA_AUC (WAGA cells (VP-MCC); area under the dose-response curve, WAGA cells, AUC<450 = reduced viability): 416.169
- Control_Avg_AUC ([5]; NPC library): 459.509
